From PubChem BioAssay (NCI)
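Exposure lasted 48 hours, with cells grown in 96-well plates and compounds tested at five concentrations. At the GI50, growth is halved. Definition used: TGI = concentration required for complete inhibition of growth.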

Assays:
Experiment in all cases: NCI-60 cell line screen, 48 h
[1] = tested on: SNB-75 CNS
[2] = tested on: 786-0 renal
[3] = tested on: SW-620 colon
[4] = tested on: HCT-15 colon
[5] = tested on: SK-MEL-28 melanoma
[6] = tested on: DU-145 prostate
[7] = tested on: HCC-2998 colon
[8] = tested on: OVCAR-8 ovarian
[9] = tested on: COLO 205 colon
[10] = tested on: NCI-H226 lung
[11] = tested on: HOP-62 NSCLC
[12] = tested on: HT29 colon
[13] = tested on: MDA-MB-435
[14] = tested on: MALME-3M melanoma
[15] = tested on: OVCAR-3 ovarian
[16] = tested on: UACC-62 melanoma
[17] = tested on: SNB-19 CNS
[18] = tested on: K-562 leukemia
[19] = tested on: SF-268 CNS
[20] = tested on: M14 melanoma
[21] = tested on: OVCAR-4 ovarian
[22] = tested on: HOP-92 NSCLC
[23] = tested on: A498 renal
[24] = tested on: NCI-H23 lung
[25] = tested on: IGROV1 ovarian
[26] = tested on: SN12C renal
[27] = tested on: PC-3 prostate
[28] = tested on: KM12 colon
[29] = tested on: SF-295 CNS
[30] = tested on: CCRF-CEM leukemia
[31] = tested on: UACC-257 melanoma
[32] = tested on: SK-MEL-5 melanoma
[33] = tested on: NCI/ADR-RES ovarian
[34] = tested on: SF-539 CNS
[35] = tested on: HL-60(TB) leukemia
[36] = tested on: RPMI-8226 leukemia
[37] = tested on: MOLT-4 leukemia
[38] = tested on: U251 CNS
[39] = tested on: T-47D breast
[40] = tested on: TK-10 renal
[41] = tested on: LOX IMVI melanoma
[42] = tested on: MCF7 breast
[43] = tested on: BT-549 breast
[44] = tested on: A549 NSCLC
[45] = tested on: NCI-H522 lung
[46] = tested on: UO-31 renal
[47] = tested on: OVCAR-5 ovarian
[48] = tested on: EKVX NSCLC
[49] = tested on: SK-OV-3 ovarian
[50] = tested on: NCI-H460 lung
[51] = tested on: SK-MEL-2 melanoma
[52] = tested on: ACHN renal
[53] = tested on: HCT-116 colon
[54] = tested on: HS 578T breast
[55] = tested on: CAKI-1 renal
[56] = tested on: SR leukemia
[57] = tested on: MDA-MB-231 breast

Compound `CN1CCN(c2ccc(Nc3nc(NCCCNS(=O)(=O)c4cccc(F)c4)c4sccc4n3)cc2)CC1` has a GI50 [1] of 11.5 µM, a TGI [1] of 23.9 µM and a GI50 [2] of 2.47 µM. The TGI [2] was 6.25 µM, the GI50 [3] was 4.12 µM and the TGI [3] was 17.2 µM. The GI50 [4] was 2.18 µM, the TGI [4] was 6.88 µM and the GI50 [5] was 1.61 µM. The TGI [5] was 3.08 µM, the GI50 [6] was 10.5 µM and the TGI [6] was 23 µM. It also gave a GI50 [7] of 4.35 µM, a TGI [7] of 15.5 µM and a GI50 [8] of 5.67 µM. For the same compound, the TGI [8] was 23.2 µM, the GI50 [9] was 3.61 µM and the TGI [9] was 16.1 µM. It also gave a GI50 [10] of 6.63 µM, a TGI [10] of 20.1 µM and a GI50 [11] of 14.8 µM. For the same compound, the TGI [11] was 29 µM, the GI50 [12] was 2.18 µM and the TGI [12] was 5.14 µM. It also gave a GI50 [13] of 3.01 µM, a TGI [13] of 11.3 µM and a GI50 [14] of 1.8 µM. For the same compound, the TGI [14] was 3.25 µM, the GI50 [15] was 3.59 µM and the TGI [15] was 15.3 µM. For the same compound, the GI50 [16] was 2.46 µM, the TGI [16] was 7.07 µM and the GI50 [17] was 7.7 µM. The TGI [17] was 20.2 µM, the GI50 [18] was 1.43 µM and the TGI [18] was 9.8 µM. The GI50 [19] was 6.41 µM, the TGI [19] was 24.9 µM and the GI50 [20] was 1.78 µM. The TGI [20] was 3.69 µM, the GI50 [21] was 3.45 µM and the TGI [21] was 14.7 µM. It also gave a GI50 [22] of 3.37 µM, a TGI [22] of 17.1 µM and a GI50 [23] of 10.9 µM. The TGI [23] was 23 µM, the GI50 [24] was 11.7 µM and the TGI [24] was 25.7 µM. For the same compound, the GI50 [25] was 7.33 µM, the TGI [25] was 20.9 µM and the GI50 [26] was 11.5 µM. For the same compound, the TGI [26] was 23.8 µM, the GI50 [27] was 6.87 µM and the TGI [27] was 25.1 µM. It also gave a GI50 [28] of 10.8 µM, a TGI [28] of 40.5 µM and a GI50 [29] of 3.74 µM. It also gave a TGI [29] of 13.8 µM, a GI50 [30] of 3.99 µM and a TGI [30] greater than 100 µM. The GI50 [31] was 1.86 µM, the TGI [31] was 3.81 µM and the GI50 [32] was 3.49 µM. It also gave a TGI [32] of 12 µM, a GI50 [33] of 13.9 µM and a TGI [33] of 38.5 µM. It also gave a GI50 [34] of 1.67 µM, a TGI [34] of 3.18 µM and a GI50 [35] of 1.78 µM. For the same compound, the TGI [35] was 3.74 µM, the GI50 [36] was 2.85 µM and the TGI [36] was 13.9 µM. For the same compound, the GI50 [37] was 1.34 µM, the TGI [37] was 12.8 µM and the GI50 [38] was 3.31 µM. The TGI [38] was 13.5 µM, the GI50 [39] was 10.9 µM and the TGI [39] was 31.1 µM. For the same compound, the GI50 [40] was 14.5 µM, the TGI [40] was 28.2 µM and the GI50 [41] was 1.74 µM. It also gave a TGI [41] of 3.58 µM, a GI50 [42] of 3.52 µM and a TGI [42] of 14.3 µM. It also gave a GI50 [43] of 8.19 µM, a TGI [43] of 23.9 µM and a GI50 [44] of 10 µM. It also gave a TGI [44] of 23.7 µM, a GI50 [45] of 3.2 µM and a TGI [45] of 14.1 µM. It also gave a GI50 [46] of 10.1 µM, a TGI [46] of 21.7 µM and a GI50 [47] of 10.2 µM. The TGI [47] was 22.3 µM, the GI50 [48] was 9.48 µM and the TGI [48] was 21.3 µM. The GI50 [49] was 17.3 µM, the TGI [49] was 32.3 µM and the GI50 [50] was 3.81 µM. It also gave a TGI [50] of 14.6 µM, a GI50 [51] of 12.8 µM and a TGI [51] of 25.9 µM. It also gave a GI50 [52] of 4.49 µM, a TGI [52] of 16.2 µM and a GI50 [53] of 3.73 µM. It also gave a TGI [53] of 16.4 µM, a GI50 [54] of 3.72 µM and a TGI [54] of 34.4 µM. For the same compound, the GI50 [55] was 10.8 µM, the TGI [55] was 22.6 µM and the GI50 [56] was 1.79 µM. It also gave a TGI [56] of 5.5 µM, a GI50 [57] of 3.54 µM and a TGI [57] of 12.7 µM.
